According to US20040014217A1, “Methods of transfection” (priority 2000, published 2004):

Key:
1HAEo-cells = assay: BrdU incorporation by flow cytometry, 1HAEo- cells; type: cell-based, human; details: EGTA 2 mM, aphidicolin 10 μg/ml where present
Description: A BrdU Labelling and Detection Kit (Roche, Basel, Switzerland) was used, which contains the BrdU labelling reagent and the monoclonal mouse anti-BrdU. […] Cells were washed with PBS and incubated with a second layer antibody, Texas Red labelled horse anti-mouse IgG (Vector Laboratories, Peterborough, UK), for 30 minutes at 37° C. and then analysed by flow cytometry at the wavelength of 575±20 nm as detailed above. In some experiments, aphidicolin, a cell-proliferation inhibitor blocking the cell cycle in S-phase, was added to the cells to observe the effects on transfection efficiency.

[1] = test system: Human airway epithelial (HAE) cells; assay: BrdU labelling of HAE cells, Example 13; type: cell-based
Description: Bromodeoxyuridine (BrdU) labelling enables assessment of cell proliferation. BrdU kits are available from Zymed Laboratories, Inc., South San Francisco, Calif., U.S.A. BrdU was added to the cells at the same time as the transfection reagent and was maintained throughout the rest of the experiment until cell harvesting.

integrins = details: cited from earlier work
ECV304 cells = assay: Luciferase (pGL2) transfection of ECV304 cells; type: cell-based, human; details: LID complexes, 40 μg total [K]16-peptide; luciferase after 48 hours
Description: Cells were seeded into 24-well plates at 5×10^4 cells per well then incubated overnight at 37° C. in complete growth medium. The following day, transfection complexes were made from the following stock solutions, all prepared in OptiMEM (Life Technologies, Paisley, U. K.), lipofectin (an equimolar mixture of the cationic lipid N-[1-(2,3-dioleyloxy)propyl]-N,N,N-trimethylammonium chloride (DOTMA) and the neutral lipid dioleoyl phosphatidylethanolamine (DOPE), obtained as “Lipofectin” from Life Technologies, Paisley, U.K.) (1 mg/ml), pGL2-control (1 mg/100 ml) and [K]16]/integrin-targeting peptide 1, 5 or 6 (0.1 mg/ml).
Complexes were made usually with three components: oligolysine-peptide (I), plasmid DNA or RNA (D) and lipofectin (L), by mixing together the different components with an automatic pipette. […]
Cells transformed with pGL2 were washed twice with PBS to remove serum then 100 microlitres of Reporter Lysis Buffer (Promega, Madison, Wis, U.S.A.) was added to each well and placed at […] for 15 to 30 minutes. […] Total light emission was measured for 60 seconds on an LKB 1251 Luminometer (Labtech, Uckfield, U.K.). The protein concentration of each sample was then determined with Protein Assay Reagent (BioRad, Hercules, Calif., U.S.A.) and luciferase enzyme activity expressed in terms of relative light units per milligram of protein (RLU/mg). […]

[2] = test system: human lung fibroblasts (HFL-1 cells); assay: Thrombin-induced proliferation of HFL-1 cells after antisense (PAR-1) transfection; type: cell-based
Description: Thrombin stimulates proliferation of human lung fibroblasts. Thrombin-treated human lung fibroblasts (HFL-1 cells) proliferated 53% in response to thrombin. 24 hours before treatment with thrombin, HFL-1 cells were treated with an LID complex comprising [K]16-peptide 6, lipofectin and a 20-mer antisense oligonucleotide directed against the thrombin receptor PAR-1 in the optimal ratio and mixing order prepared as described in the Materials and Methods section and the Examples above. The antisense oligonucleotide-containing complex was in contact with the cells for 4 hours. 24 hours after the start of the treatment with the complex, treatment with thrombin was carried out.

O=c1[nH]c(=O)n([C@H]2C[C@H](O)[C@@H](CO)O2)cc1Br [BrdU, 5-Bromo-2′-deoxy-uridine]
BrdU-positive cells, confluent 1HAEo- cells (1HAEo-cells): 7.1%
BrdU-positive cells, sub-confluent 1HAEo- cells (1HAEo-cells): 43.0%
BrdU labelling, Confluent cells [1]: 7.1%
BrdU labelling, Sub-confluent cells [1]: 44.4%

C[C@@]1(CO)[C@H](O)CC[C@@]2(C)[C@H]1CC[C@H]1C[C@@H]3C[C@@]12CC[C@]3(O)CO [aphidicolin, Aphidicolin]
BrdU-positive cells, confluent 1HAEo- cells (1HAEo-cells): 5%
BrdU-positive cells, sub-confluent 1HAEo- cells (1HAEo-cells): 7%

GACDCRGDCFCA [Peptide 5]
integrin specificity (integrins): (αv)

[K]16GACRRETAWACG (KKKKKKKKKKKKKKKKGACRRETAWACG) [oligolysine-peptide 6]
transfection efficiency with increasing amounts of oligolysine-peptide 6 replacing [K]16 (ECV304 cells): apparently exponential increase

thrombin
proliferation in response to thrombin [2]: 53%
